Earlier results, collected in patent publication US9180198B2, “Slow-release cilostazol tablet having an improved elution rate and minimal side effects” (KOREA UNITED PHARM, INC., priority 2009, dated 2015).

Experiments:
[1] = tested on: cAMP-PDE (cyclic AMP phosphodiesterase); details: in blood platelets and vascular smooth muscles
blood platelets = blood platelets isolated from a mouse, a rat, a rabbit, a dog and a human

## O=C1CCc2cc(OCCCCc3nnnn3C3CCCCC3)ccc2N1 [cilostazol, 6-[4-(cyclohexyl-1H-tetrazol-5-yl)butoxy]-3,4-dihydro-2(1H)-quinolinone]
[1]
  cAMP-PDE activity: inhibit cAMP-PDE (cyclic AMP phosphodiesterase) activity
Blood platelets
  primary aggregation of blood platelets caused by ADP, epinephrine: suppress the primary aggregation of blood platelets
other
  water solubility: poorly water-soluble
